US20250163066A1, “PROTACs of MALT1” (TEGID THERAPEUTICS, INC., priority 2022, published 2025)

These compounds were tested against MALT1 (Homo sapiens (Human), UniProt Q9UDY8) (assay: MALT1 enzymatic activity inhibition (fluorescence, Ac-LRSR-AMC substrate)). Conditions: recombinant MALT1 1.5 ng/μl, Ac-LRSR-AMC 1 μM.
Format: biochemical
Procedure, shortened: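 Recombinant human MALT1 (1.5 ng/μl final) preincubated 10 min at rt with compounds in 50 mM HEPES pH 7.2-7.4, 100 mM NaCl, 900 mM sodium citrate, 10 mM DTT; 1 μM Ac-LRSR-AMC then added. AMC fluorescence read at start and after 30 min 37 °C plus 30 min rt; difference gives signal, % inhibition fitted to IC50.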

Chain of MALT1 (Q9UDY8 whole entry): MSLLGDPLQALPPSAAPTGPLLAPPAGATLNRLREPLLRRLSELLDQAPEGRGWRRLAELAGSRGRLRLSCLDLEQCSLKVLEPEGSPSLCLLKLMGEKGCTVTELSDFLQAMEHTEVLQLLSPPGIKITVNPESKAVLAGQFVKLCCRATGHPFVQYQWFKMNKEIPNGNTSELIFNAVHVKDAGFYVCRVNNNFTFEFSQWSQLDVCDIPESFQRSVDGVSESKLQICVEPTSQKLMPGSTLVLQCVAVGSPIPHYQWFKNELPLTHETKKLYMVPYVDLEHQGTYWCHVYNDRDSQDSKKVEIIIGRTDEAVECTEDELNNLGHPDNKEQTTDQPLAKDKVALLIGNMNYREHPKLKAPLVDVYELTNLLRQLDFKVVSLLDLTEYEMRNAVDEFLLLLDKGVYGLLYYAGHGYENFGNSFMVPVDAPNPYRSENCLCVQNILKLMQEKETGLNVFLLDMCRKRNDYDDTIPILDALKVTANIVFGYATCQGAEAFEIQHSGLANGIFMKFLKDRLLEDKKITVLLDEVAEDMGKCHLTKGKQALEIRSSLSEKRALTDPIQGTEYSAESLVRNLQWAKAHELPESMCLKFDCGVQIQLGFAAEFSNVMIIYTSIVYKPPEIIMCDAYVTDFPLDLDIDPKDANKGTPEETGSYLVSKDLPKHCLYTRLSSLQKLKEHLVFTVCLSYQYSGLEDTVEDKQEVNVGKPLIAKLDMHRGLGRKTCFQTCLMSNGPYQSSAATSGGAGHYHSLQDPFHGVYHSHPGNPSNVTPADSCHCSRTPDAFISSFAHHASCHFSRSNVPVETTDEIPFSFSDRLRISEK

| Structure (SMILES) | EC50 [µM] |
| --- | --- |
| CC(C)(C)C(=O)OCN1C(=O)CCC(N2Cc3cc(N4CCN(C(=O)CCCCc5nc(-c6ncc(NC(=O)Nc7cnc8ccnn8c7C7CCCC7)cc6Cl)no5)CC4)ccc3C2=O)C1=O (centres unmarked) [Compound 134, [3-[5-[4-[5-[3-[3-chloro-5-[(7-cyclopentylpyrazolo[1,5-a]pyrimidin-6-yl)carbamoylamino]-2-pyridyl]-1,2,4-oxadiazol-5-yl]pentanoyl]piperazin-1-yl]-1-oxo-isoindolin-2-yl]-2,6-dioxo-1-piperidyl]methyl 2,2-dimethylpropanoate] | ≤ 0.2 |
| CC(C)c1c(NC(=O)Nc2cnc(-c3noc(CCCC(=O)N4CCN(c5ccc6c(c5)CN(C5CCC(=O)N(C)C5=O)C6=O)CC4)n3)c(Cl)c2)cnc2ccnn12 (centres unmarked) [Compound 135, 1-[5-chloro-6-[5-[4-[4-[2-(1-methyl-2,6-dioxo-3-piperidyl)-1-oxo-isoindolin-5-yl]piperazin-1-yl]-4-oxo-butyl]-1,2,4-oxadiazol-3-yl]-3-pyridyl]-3-(7-isopropylpyrazolo[1,5-a]pyrimidin-6-yl)urea] | ≤ 0.2 |
| CC(C)c1c(NC(=O)Nc2cnc(-c3noc(CCCCC(=O)N4CCN(c5ccc6c(c5)CN(C5CCC(=O)N(C)C5=O)C6=O)CC4)n3)c(Cl)c2)cnc2ccnn12 (centres unmarked) [Compound 136, 1-[5-chloro-6-[5-[5-[4-[2-(1-methyl-2,6-dioxo-3-piperidyl)-1-oxo-isoindolin-5-yl]piperazin-1-yl]-5-oxo-pentyl]-1,2,4-oxadiazol-3-yl]-3-pyridyl]-3-(7-isopropylpyrazolo[1,5-a]pyrimidin-6-yl)urea] | ≤ 0.2 |
| CC(C)c1c(NC(=O)Nc2cnc(-c3noc(CCCC(=O)N4CCN(c5ccc6c(c5)CN(C5CCC(=O)N(COC(=O)C(C)(C)C)C5=O)C6=O)CC4)n3)c(Cl)c2)cnc2ccnn12 (centres unmarked) [Compound 137, [3-[5-[4-[4-[3-[3-chloro-5-[(7-isopropylpyrazolo[1,5-a]pyrimidin-6-yl)carbamoylamino]-2-pyridyl]-1,2,4-oxadiazol-5-yl]butanoyl]piperazin-1-yl]-1-oxo-isoindolin-2-yl]-2,6-dioxo-1-piperidyl]methyl 2,2-dimethylpropanoate] | ≤ 0.2 |
| CC(C)c1c(NC(=O)Nc2cnc(-c3noc(CCCCC(=O)N4CCN(c5ccc6c(c5)CN(C5CCC(=O)N(COC(=O)C(C)(C)C)C5=O)C6=O)CC4)n3)c(Cl)c2)cnc2ccnn12 (centres unmarked) [Compound 138, [3-[5-[4-[5-[3-[3-chloro-5-[(7-isopropylpyrazolo[1,5-a]pyrimidin-6-yl)carbamoylamino]-2-pyridyl]-1,2,4-oxadiazol-5-yl]pentanoyl]piperazin-1-yl]-1-oxo-isoindolin-2-yl]-2,6-dioxo-1-piperidyl]methyl 2,2-dimethylpropanoate] | ≤ 0.2 |
| CC(C)c1c(NC(=O)Nc2cnc(-c3noc(CCCCC(=O)N4CCN(c5ccc6c(c5)CN(C5CCC(=O)NC5=O)C6=O)CC4)n3)c(Cl)c2)cnc2ccnn12 (centres unmarked) [Compound 139, 1-[5-chloro-6-[5-[5-[4-[2-(2,6-dioxo-3-piperidyl)-1-oxo-isoindolin-5-yl]piperazin-1-yl]-5-oxo-pentyl]-1,2,4-oxadiazol-3-yl]-3-pyridyl]-3-(7-isopropylpyrazolo[1,5-a]pyrimidin-6-yl)urea] | ≤ 0.2 |
| CC(C)c1c(NC(=O)Nc2cnc(-c3noc(CCCC(=O)N4CCN(c5ccc6c(c5)CN(C5CCC(=O)NC5=O)C6=O)CC4)n3)c(Cl)c2)cnc2ccnn12 (centres unmarked) [Compound 140, 1-[5-chloro-6-[5-[4-[4-[2-(2,6-dioxo-3-piperidyl)-1-oxo-isoindolin-5-yl]piperazin-1-yl]-4-oxo-butyl]-1,2,4-oxadiazol-3-yl]-3-pyridyl]-3-(7-isopropylpyrazolo[1,5-a]pyrimidin-6-yl)urea] | ≤ 0.2 |
| Cc1cc(NC(=O)Nc2cnc3ccnn3c2C2CCCCC2)cnc1-c1noc(CCCCN2CCN(c3ccc4c(c3)CN(C3CCC(=O)NC3=O)C4=O)CC2)n1 (centres unmarked) [Compound 141, 1-(7-cyclohexylpyrazolo[1,5-a]pyrimidin-6-yl)-3-[6-[5-[4-[4-[2-(2,6-dioxo-3-piperidyl)-1-oxo-isoindolin-5-yl]piperazin-1-yl]butyl]-1,2,4-oxadiazol-3-yl]-5-methyl-3-pyridyl]urea] | 0.2 to 0.5 |
